As a reminder, the melting point is the temperature of the solid-liquid transition. As a reminder, the EC50 is the concentration needed to bring the measured effect to its halfway point.

This passage reports melting point and EC50 results from publication PMC4717260, “2-(2,4-Dioxy-1,2,3,4-Tetrahydropyrimidin-1-yl)-N-(4-Phenoxyphenyl)-Acetamides as a Novel Class of Cytomegalovirus Replication Inhibitors” (Acta Naturae, 2015).

Data set [1] has as its target thymidine kinase deficient VZV mutant strain (07-1). The data set can be described thus: Anti-VZV activity (thymidine kinase deficient mutant strain 07-1). The class given is cell-based, varicella zoster virus.
The test system of data set [2] is CMV (AD-169 and Davis strains). The data set can be described thus: Anti-CMV activity in HEL cell culture. Format: cell-based, human cytomegalovirus. The note with it: read-out: EC50, inhibition of CMV replication.
The next data set deals with VZV (Oka strain). The data set can be described thus: microbe, parasite or virus in culture. Format: cell-based, varicella zoster virus. Conditions: read-out: EC50, VZV replication (Oka strain).

Like-named read-outs stand apart in the source and are kept apart here.

For the molecule `C#CCn1ccc(=O)n(CC(=O)Nc2ccc(Oc3ccccc3)cc2)c1=O`, the melting point lay in the range of 226 to 228 °C.

The molecule `Cc1ccc(Cn2ccc(=O)n(CC(=O)Nc3ccc(Oc4ccccc4)cc3)c2=O)cc1` returned a melting point of 193 to 194 °C. Same read-out and setting: the value for `O=C(Cn1c(=O)ccn(CC=Cc2ccccc2)c1=O)Nc1ccc(Oc2ccccc2)cc1` was 184 to 185 °C; that for `O=C(Cn1c(=O)ccn(CCOc2ccccc2)c1=O)Nc1ccc(Oc2ccccc2)cc1` was 154 to 155 °C. Regarding `O=C(Cn1c(=O)ccn(Cc2ccccc2)c1=O)Nc1ccc(Oc2ccccc2)cc1` [Compound 4, 2-(3-Benzyl-2,6-dioxo-3,6-dihydropyrimidin-1(2H)-yl)-N-(4-phenoxyphenyl)acetamides], the half-maximal effective concentration (EC50) was 6.68 µM in data set [1] (strain 07-1, resistant to acyclovir and brivudine, read-out: EC50, thymidine kinase deficient VZV mutant strain (07-1)); 3.06 to 8.9 µM in data set [2] (one range printed for both compounds and both strains); 8.18 µM in the data set on VZV (Oka strain) (HEL cell culture, Oka strain). The molecule `Cc1cc(C)cc(Cn2ccc(=O)n(CC(=O)Nc3ccc(Oc4ccccc4)cc3)c2=O)c1` [Compound 6, 2-[3-(3,5-Dimethylbenzyl)-2,6-dioxo-3,6-dihydropyrimidin-1(2H)-yl]-N-(4-phenoxyphenyl)acetamide] registered a melting point of 99 to 101 °C. The EC50 in data set [1] (Human alphaherpesvirus 3, read-out: EC50, thymidine kinase deficient VZV mutant strain (07-1)) is 16.1 µM. In addition, the half-maximal effective concentration (EC50) in data set [2] (Human betaherpesvirus 5, AD169, one range printed for both compounds and both strains) was 3.06 to 8.9 µM. In the data set with VZV (Oka strain) (Human alphaherpesvirus 3, HEL), the EC50 came to 17 µM. Consider `O=c1[nH]c(=O)n([C@H]2C[C@H](O)[C@@H](CO)O2)cc1/C=C/Br` [brivudine, reference compound], for which the EC50 with VZV (Oka strain) (Human alphaherpesvirus 3, HEL) is 0.026 µM.
